Source: ChEMBL document CHEMBL2203038, “Isolation and synthesis of two antiproliferative calamenene-type sesquiterpenoids from Sterculia tavia from the Madagascar rain forest” (Bioorg Med Chem, 2012)

Test system: A2780
Assay: Antiproliferative activity against human A2780 cells after 2 days by alamar blue assay
Assay type: functional, cell-based
Conditions: A2780, 48 h

IC50 [µM]	Compound
> 50	COc1cc2c(cc1C)C(C(C)C)CC=C2C (stereo unspecified)
> 50	COc1cc2c(cc1C)C(C(C)C)CC(O)[C@]2(C)O (stereo partly specified)
33.9	COc1cc2c(cc1C)C(C(C)C)CC(=O)[C@]2(C)O (stereo partly specified)
22.1	COc1cc2c(cc1C)C(C(C)C)=CC(O)[C@]2(C)O (stereo partly specified)
35.5	COc1cc2c(cc1C)C(O)(C(C)C)C(O)C(O)[C@]2(C)O (mixture of isomers)
5.5	COc1cc2c(cc1C)[C@](O)(C(C)C)C(=O)C(=O)[C@]2(C)O (stereo in doubt)
5.9	COc1cc2c(cc1C)[C@@](O)(C(C)C)C(=O)C(=O)[C@@]2(C)O (stereo in doubt)
6.7	COc1cc2c(cc1C)[C@](O)(C(C)C)C(=O)C(=O)[C@@]2(C)O (stereo in doubt)
6.3	COc1cc2c(cc1C)[C@@](O)(C(C)C)C(=O)C(=O)[C@]2(C)O (stereo in doubt)
4	COc1cc2c(cc1C)C(C(C)C)=CC(=O)[C@]2(C)O [LACINILENE C METHYL ETHER]
10.2	CC1=Cc2c(c(C)cc(O)c2C(C)C)C(=O)C1=O [MANSONONE G]
